Where two headings read alike, the source gives them in different places. Marks after values point to notes of the source that are not given here.
Tests used:
TraR [1] = target: T1, TraR (Agrobacterium tumefaciens, UniProt P33905); assay: Agrobacterium tumefaciens reporter gene assay, WCF47(pCF372), β-galactosidase (Miller) readout; type: cell-based; conditions: for A. tumefaciens β-galactosidase activity [Miller units] 10^4 nM: antagonism, compound at 10^4 nM screened against 100 nM 8b, strain WCF47(pCF372); for activity against TraR in A. tumefaciens: antagonism screen in presence of native ligand 8b; for activity relative to previously reported antagonists 7g, 8f and 9: controls at 10 μM
T1 construct: Both of these reporter strains lack their native AHL synthases, yet retain active LuxR-type receptors (LasR and TraR proteins, respectively); endogenous in cells; host or cells: A. tumefaciens WCF47(pCF372)
T1 sequence (P33905 whole entry): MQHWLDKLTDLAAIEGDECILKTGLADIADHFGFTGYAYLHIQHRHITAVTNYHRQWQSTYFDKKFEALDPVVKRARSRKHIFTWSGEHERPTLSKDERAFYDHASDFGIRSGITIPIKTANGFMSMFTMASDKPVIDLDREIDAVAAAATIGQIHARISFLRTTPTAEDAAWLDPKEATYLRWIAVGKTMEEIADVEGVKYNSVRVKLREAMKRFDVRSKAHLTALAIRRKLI
Description: (§1) The AHL library constructed by the schema described above, was screened in two bacterial reporter strains for antagonism of quorum sensing: 1) P. aeruginosa PAO-JP2(plasI-LVAgfp), (De Kievit, T. R.; Gillis, R.; Marx, S.; Brown, C.; Iglewski, B. H. Appl. Environ. Microbiol. 2001, 67, 1865-1873) and 2) A. tumefaciens WCF47 (pCF372). Examination of these two strains was valuable for two reasons: 1) the direct clinical relevance of P. aeruginosa, and 2), the extensive body of biochemical and structural data for TraR in A. tumefaciens. Both of these reporter strains lack their native AHL synthases, yet retain active LuxR-type receptors (LasR and TraR proteins, respectively); exogenous ligand is required for receptor activation, which can be measured by fluorescence (green fluorescent protein (GFP) for LasR) or absorbance (via β-galactosidase activity for TraR) measurements.
An appropriate amount of concentrated AHL stock solution, to give a final concentration of 100 nM, was added to an empty culture tube, and the solvent was allowed to evaporate. An overnight culture of A. tumefaciens WCF47(pCF372) was diluted to an OD600 (optical density) of 0.1 in fresh AB minimal medium containing 400 μg/mL octopine and 50 μg/mL streptomycin. A 1 mL portion of the diluted culture was added to the tubes containing AHLs. Tubes were grown at 28° C. for 12-16 h in a rotary shaking incubator (200 rpm).
The cultures were then assayed for β-galactosidase activity following the Miller assay method. Briefly, 100 μL aliquots of bacteria from each of the tubes were added to wells of a polystyrene 96-well plate and the OD600 of each well was recorded. Next, […] aliquots from each well were transferred to a solvent resistant 96-well plate containing 200 μL Z buffer, 8 μL CHCl3 and 4 μL, 0.1% aq. sodium dodecylsulfate (SDS). This suspension was mixed via repetitive pipetting, after which the CHCl3 was allowed to settle. A 100 μL aliquot from each well was transferred to a fresh polystyrene 96-well plate, and 20 μL of substrate, o-nitrophenyl-β-D-galactopyranoside (ONPG, […] in phosphate buffer), was added at time zero. After the development of appropriate yellow color (ca. 15-35 minutes), the reaction was terminated by the addition of 50 μL of 1 M Na2CO3. Absorbance at 420 nm and 550 nm was measured for each well using a plate reader, and Miller units were calculated according to standard methods.
Similar methods were used for antagonism assays, except the concentration of AHL analog used was 10^4 nM, and OOHL (8b) stock solution was added to each tube such that its concentration was 100 nM (FIG. 30). […] All assays were performed in triplicate.

LasR = target: T2, LasR (Pseudomonas aeruginosa, UniProt P25084); assay: Pseudomonas aeruginosa reporter gene assay, PAO-JP2(plasI-LVAgfp), GFP fluorescence readout; type: cell-based; conditions: for P. aeruginosa Relative fluorescence [%] 12.5 μM / P. aeruginosa Relative fluorescence [%] 400 μM: antagonism, relative to agonism by 8d at 1 μM set to 100%; for P. aeruginosa Relative fluorescence [%] 12.5 μM: compound at 12.5 μM screened against 1 μM 8d; for P. aeruginosa Relative fluorescence [%] 400 μM: compound at 400 μM screened against 1 μM 8d; for antagonism against LasR in P. aeruginosa: antagonism screen in presence of native ligand 8d; for activity relative to the three controls (7g, 8f, 9): at 400 μM
T2 construct: Both of these reporter strains lack their native AHL synthases, yet retain active LuxR-type receptors (LasR and TraR proteins, respectively); endogenous in cells; host or cells: P. aeruginosa PAO-JP2(plasI-LVAgfp)
T2 sequence (P25084 whole entry): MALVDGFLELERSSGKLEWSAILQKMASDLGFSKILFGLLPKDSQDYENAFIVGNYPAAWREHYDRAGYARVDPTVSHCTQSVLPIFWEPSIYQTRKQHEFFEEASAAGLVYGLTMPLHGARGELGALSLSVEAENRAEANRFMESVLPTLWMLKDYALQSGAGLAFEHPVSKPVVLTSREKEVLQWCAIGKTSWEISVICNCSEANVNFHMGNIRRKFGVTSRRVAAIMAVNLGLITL
Description: as §1
An appropriate amount of concentrated stock solution, to give a final concentration of 1 μM, was added to a polypropylene 96-well plate, and the solvent was allowed to evaporate. An overnight culture of P. aeruginosa PAO-JP2(plasI-LVAgfp) was diluted to an OD600 of 0.1 in fresh LB medium containing 200 μg/mL carbenicillin. 200 μL of the diluted culture was added to each well of the plate and incubated at 37° C. for 6 h in a rotary shaking incubator (200 rpm). Cultures were transferred to a polystyrene 96-well plate, GFP expression was measured using a plate reader, and this value was normalized to cell density. Similar methods were used for antagonism assays, illustrated in FIG. […] All assays were performed in triplicate.

TraR [2] = target: T1, TraR; assay: Agrobacterium tumefaciens reporter gene assay, WCF47(pCF372), β-galactosidase (Miller) readout; type: cell-based; conditions: for A. tumefaciens β-galactosidase activity [Miller units] 100 nM: antagonism, compound at 100 nM screened against 100 nM 8b, strain WCF47(pCF372)
[3] = tested on: P. aeruginosa (PAO1(pLVAgfp)) biofilm formation; assay: Static biofilm assay, scanning laser confocal microscopy; type: cell-based, Pseudomonas aeruginosa; conditions: 48 h; for P. aeruginosa biofilm formation: 50 μM ligand, glass slides; for dose dependence of biofilm disruption: 50, 25 and 12.5 μM
Protocol: Standard static biofilm assays were performed using a P. aeruginosa (PAO1(pLVAgfp)) strain that constitutively produces GFP to facilitate visualization. Biofilms were grown in the absence of ligand (FIG. 34A) and in the presence of 50 μM synthetic ligands 7h (FIG. 34B) or 7o (FIG. 34C), for 48 h and visualized using scanning laser confocal microscopy.
Standard static biofilm assays were performed using a P. aeruginosa PAO1(pTdK-GFP). In brief, an overnight culture was diluted to an OD600 of 0.1 in fresh M9 medium containing 200 μg/mL carbenicillin. This diluted culture was added to a tube containing 50 μM antagonist. Biofilms were grown in the absence of ligand, FIG. 35A; in the presence synthetic ligand 7h, FIG. 35B; and in the presence of synthetic ligand 7o, FIG. 35C (both at 50 μM) for 48 h and visualized using scanning laser confocal microscopy. A sterilized glass coverslip was added to each tube, and the culture was incubated at 37° C. for 48 h without shaking. Coverslips were removed, washed with phosphate buffered saline, and examined using scanning laser confocal microscopy methods. Top-down Z series were collected over a distance of ca. 100 μm. Images in FIGS. 35-37 are representative of several experiments performed on separate days.

CCCCCCC(=O)N[C@H]1CCOC1=O [Compound 7g, N-heptanoyl-L-homoserine lactone, reference compound]
IC50 (TraR [1]): 0.13 µM | A. tumefaciens β-galactosidase activity [Miller units] 10^4 nM (TraR [1]): 34 ± 6 Miller units | IC50 (LasR): 51.5 µM | P. aeruginosa Relative fluorescence [%] 12.5 μM (LasR): 78 ± 9% | P. aeruginosa Relative fluorescence [%] 400 μM (LasR): 29 ± 9% | A. tumefaciens β-galactosidase activity [Miller units] 100 nM (TraR [2]): 226 ± 30 Miller units

O=C(CCCc1c[nH]c2ccccc12)N[C@@H]1CCOC1=O [Compound 7h, N-(indole-3-butanoyl)-L-homoserine lactone]
IC50 (TraR [1]): 1.1 µM | activity against TraR in A. tumefaciens (TraR [1]): significant activity | A. tumefaciens β-galactosidase activity [Miller units] 10^4 nM (TraR [1]): 150 ± 14 Miller units | activity relative to previously reported antagonists 7g, 8f and 9 (TraR [1]): one to two orders of magnitude more active | IC50 (LasR): 14.8 µM | antagonism against LasR in P. aeruginosa (LasR): identified as antagonists | P. aeruginosa Relative fluorescence [%] 12.5 μM (LasR): 52 ± 8% | P. aeruginosa Relative fluorescence [%] 400 μM (LasR): 14 ± 4% | activity relative to the three controls (7g, 8f, 9) (LasR): twice as active | inhibition (LasR antagonism) (LasR; at a 12.5:1 ratio with native ligand 8d): 50% | P. aeruginosa biofilm formation [3]: strongly inhibit | dose dependence of biofilm disruption [3]: dose-dependent disruption | A. tumefaciens β-galactosidase activity [Miller units] 100 nM (TraR [2]): 245 ± 14 Miller units

O=C(CC1C=CCC1)N[C@H]1CCOC1=O (stereo partly drawn) [Compound 7k, N-(2-cyclopentene-1-acetanoyl)-L-homoserine lactone]
IC50 (TraR [1]): 1 µM | activity against TraR in A. tumefaciens (TraR [1]): significant activity | A. tumefaciens β-galactosidase activity [Miller units] 10^4 nM (TraR [1]): 19 ± 8 Miller units | activity relative to previously reported antagonists 7g, 8f and 9 (TraR [1]): one to two orders of magnitude more active | IC50 (LasR): 33.1 µM | antagonism against LasR in P. aeruginosa (LasR): identified as antagonists | P. aeruginosa Relative fluorescence [%] 12.5 μM (LasR): 72 ± 8% | P. aeruginosa Relative fluorescence [%] 400 μM (LasR): 24 ± 7% | A. tumefaciens β-galactosidase activity [Miller units] 100 nM (TraR [2]): 306 ± 8 Miller units

O=C(Cc1ccc(Br)cc1)N[C@H]1CCOC1=O [Compound 7o, N-(4-bromophenylacetanoyl)-L-homoserine lactone]
activity against TraR in A. tumefaciens (TraR [1]): significant activity | A. tumefaciens β-galactosidase activity [Miller units] 10^4 nM (TraR [1]): 0 ± 4 Miller units | activity relative to previously reported antagonists 7g, 8f and 9 (TraR [1]): one to two orders of magnitude more active | IC50 (TraR [1]; screened against 100 nM 8b, sigmoidal dose-response curve fit, read-out: A. tumefaciens IC50): 0.25 µM | antagonism against LasR in P. aeruginosa (LasR): identified as antagonists | P. aeruginosa Relative fluorescence [%] 12.5 μM (LasR): 58 ± 21% | P. aeruginosa Relative fluorescence [%] 400 μM (LasR): 14 ± 5% | activity relative to the three controls (7g, 8f, 9) (LasR): twice as active | IC50 (LasR; screened against 1 μM 8d, sigmoidal dose-response curve fit, read-out: P. aeruginosa IC50): 16.1 µM | P. aeruginosa biofilm formation [3]: strongly inhibit | dose dependence of biofilm disruption [3]: dose-dependent disruption | A. tumefaciens β-galactosidase activity [Miller units] 100 nM (TraR [2]): 193 ± 9 Miller units | inhibition at 0.1 µM (TraR [2]; read-out: inhibition (TraR antagonism)): 50%

CCCCCC(=O)CC(=O)N[C@@H]1CCOC1=O [Compound 8b, N-(3-oxo-octanoyl)-L-homoserine lactone, reference compound]
A. tumefaciens β-galactosidase activity [Miller units], control agonism activity (TraR [1]; Control: agonism activity at 100 nM 8b alone): 385 ± 35^g Miller units

CCCCCCCCCC(=O)CC(=O)N[C@@H]1CCOC1=O [Compound 8d, N-(3-oxo-dodecanoyl)-L-homoserine lactone, reference compound]
P. aeruginosa Relative fluorescence [%], control relative agonism activity (LasR; Control: relative agonism activity at 1 μM 8d (not at 12.5 μM)): 100 ± 8^h %

O=C(CC(=O)N[C@H]1CCOC1=O)Cc1ccccc1 [Compound 8f, N-(3-oxo-4-phenylbutanoyl)-L-homoserine lactone, reference compound]
IC50 (TraR [1]): 0.59 µM | A. tumefaciens β-galactosidase activity [Miller units] 10^4 nM (TraR [1]): 51 ± 22 Miller units | IC50 (LasR): 53.6 µM | P. aeruginosa Relative fluorescence [%] 12.5 μM (LasR): 82 ± 18% | P. aeruginosa Relative fluorescence [%] 400 μM (LasR): 27 ± 9% | A. tumefaciens β-galactosidase activity [Miller units] 100 nM (TraR [2]): 310 ± 6 Miller units

CCCCCCCCCC(=O)CC(=O)Nc1ccccc1O [Compound 9, reference compound]
IC50 (TraR [1]): 4.7 µM | A. tumefaciens β-galactosidase activity [Miller units] 10^4 nM (TraR [1]): 186 ± 15 Miller units | IC50 (LasR): 37.3 µM | P. aeruginosa Relative fluorescence [%] 12.5 μM (LasR): 63 ± 8% | P. aeruginosa Relative fluorescence [%] 400 μM (LasR): 23 ± 7% | A. tumefaciens β-galactosidase activity [Miller units] 100 nM (TraR [2]): 396 ± 27 Miller units

Reference: patent publication US8269024B2, “Compounds and methods for modulating communication and virulence in quorum sensing bacteria” (priority 2005, dated 2012)
